# Assay results reported in ChEMBL document CHEMBL1201862, “PubChem BioAssay data set” (2004).
#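 In this assay, cells in 96-well plates receive the compound at five concentrations for 48 hours. Endpoints are linearly interpolated between the surrounding concentrations. Here, GI50 denotes the concentration required for 50% inhibition of growth.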 The source made the active and inactive calls. No stated cut-off is given here; in the data, active = GI50 up to about 1.1 µM and inactive = higher.
# Tests used:
# Assay in all cases: NCI anticancer screen, dose series, 48 h
# 786-0 = test system: 786-0
# A498 = test system: A498
# A549 = test system: A549
# ACHN = test system: ACHN
# BT-549 = test system: BT-549
# CAKI-1 = test system: CAKI-1
# CCRF-CEM = test system: CCRF-CEM
# COLO 205 = test system: COLO 205
# DU-145 = test system: DU-145
# EKVX = test system: EKVX
# HCC 2998 = test system: HCC 2998
# HCT-116 = test system: HCT-116
# HCT-15 = test system: HCT-15
# HL-60 = test system: HL-60
# HOP-62 = test system: HOP-62
# HOP-92 = test system: HOP-92
# HT-29 = test system: HT-29
# Hs-578T = test system: Hs-578T
# IGROV-1 = test system: IGROV-1
# KM12 = test system: KM12
# LOX IMVI = test system: LOX IMVI
# M14 = test system: M14
# MCF7 = test system: MCF7
# MDA-MB-231 = test system: MDA-MB-231
# MDA-MB-435 = test system: MDA-MB-435
# MDA-N = test system: MDA-N
# MOLT-4 = test system: MOLT-4
# Malme-3M = test system: Malme-3M
# NCI-H226 = test system: NCI-H226
# NCI-H23 = test system: NCI-H23
# NCI-H460 = test system: NCI-H460
# NCI-H522 = test system: NCI-H522
# NCI/ADR-RES = test system: NCI/ADR-RES
# OVCAR-3 = test system: OVCAR-3
# OVCAR-4 = test system: OVCAR-4
# OVCAR-5 = test system: OVCAR-5
# OVCAR-8 = test system: OVCAR-8
# PC-3 = test system: PC-3
# RPMI-8226 = test system: RPMI-8226
# RXF 393 = test system: RXF 393
# SF-268 = test system: SF-268
# SF-295 = test system: SF-295
# SF-539 = test system: SF-539
# SK-MEL-28 = test system: SK-MEL-28
# SK-MEL-2 = test system: SK-MEL-2
# SK-MEL-5 = test system: SK-MEL-5
# SK-OV-3 = test system: SK-OV-3
# SN12C = test system: SN12C
# SNB-19 = test system: SNB-19
# SNB-75 = test system: SNB-75
# SR = test system: SR
# SW-620 = test system: SW-620
# T47D = test system: T47D
# TK-10 = test system: TK-10
# U-251 = test system: U-251
# UACC-257 = test system: UACC-257
# UACC-62 = test system: UACC-62
# K562 = test system: K562
# UO-31 = test system: UO-31
structure (smiles),measurement,setting,value
Cc1nc(SCC(=O)Nc2ccccc2)c2sc(=S)n(-c3ccccc3)c2n1,GI50,786-0,8.79 µM (inactive)
same,GI50,A498,> 10 µM (inactive)
same,GI50,A549,> 10 µM (inactive)
same,GI50,ACHN,> 10 µM (inactive)
same,GI50,BT-549,> 10 µM (inactive)
same,GI50,CAKI-1,> 10 µM (inactive)
same,GI50,CCRF-CEM,> 10 µM (inactive)
same,GI50,COLO 205,> 10 µM (inactive)
same,GI50,DU-145,> 10 µM (inactive)
same,GI50,EKVX,> 10 µM (inactive)
same,GI50,HCC 2998,> 10 µM (inactive)
same,GI50,HCT-116,> 10 µM (inactive)
same,GI50,HCT-15,> 10 µM
same,GI50,HL-60,> 10 µM (inactive)
same,GI50,HOP-62,8.71 µM (inactive)
same,GI50,HOP-92,> 10 µM (inactive)
same,GI50,HT-29,> 10 µM (inactive)
same,GI50,Hs-578T,4.25 µM (inactive)
same,GI50,IGROV-1,> 10 µM (inactive)
same,GI50,KM12,> 10 µM (inactive)
same,GI50,LOX IMVI,> 10 µM (inactive)
same,GI50,M14,> 10 µM (inactive)
same,GI50,MCF7,> 10 µM (inactive)
same,GI50,MDA-MB-231,6.18 µM (inactive)
same,GI50,MDA-MB-435,> 10 µM (inactive)
same,GI50,MDA-N,> 10 µM (inactive)
same,GI50,MOLT-4,> 10 µM (inactive)
same,GI50,Malme-3M,> 10 µM (inactive)
same,GI50,NCI-H226,2.9 µM (inactive)
same,GI50,NCI-H23,> 10 µM (inactive)
same,GI50,NCI-H460,> 10 µM (inactive)
same,GI50,NCI-H522,> 10 µM (inactive)
same,GI50,NCI/ADR-RES,> 10 µM (inactive)
same,GI50,OVCAR-3,> 10 µM (inactive)
same,GI50,OVCAR-4,5.62 µM (inactive)
same,GI50,OVCAR-5,> 10 µM (inactive)
same,GI50,OVCAR-8,9.12 µM (inactive)
same,GI50,PC-3,> 10 µM (inactive)
same,GI50,RPMI-8226,> 10 µM (inactive)
same,GI50,RXF 393,> 10 µM (inactive)
same,GI50,SF-268,> 10 µM (inactive)
same,GI50,SF-295,> 10 µM (inactive)
same,GI50,SF-539,4.44 µM (inactive)
same,GI50,SK-MEL-28,> 10 µM (inactive)
same,GI50,SK-MEL-2,> 10 µM (inactive)
same,GI50,SK-MEL-5,> 10 µM (inactive)
same,GI50,SK-OV-3,> 10 µM (inactive)
same,GI50,SN12C,> 10 µM (inactive)
same,GI50,SNB-19,8.41 µM (inactive)
same,GI50,SNB-75,3.19 µM (inactive)
same,GI50,SR,> 10 µM (inactive)
same,GI50,SW-620,> 10 µM (inactive)
same,GI50,T47D,> 10 µM (inactive)
same,GI50,TK-10,> 10 µM (inactive)
same,GI50,U-251,8.87 µM (inactive)
same,GI50,UACC-257,> 10 µM (inactive)
same,GI50,UACC-62,> 10 µM (inactive)
NC(=O)N(O)c1cccc(Br)c1,GI50,786-0,> 100 µM (inactive)
same,GI50,A498,> 100 µM (inactive)
same,GI50,A549,> 100 µM (inactive)
same,GI50,ACHN,> 100 µM (inactive)
same,GI50,BT-549,> 100 µM (inactive)
same,GI50,CAKI-1,> 100 µM (inactive)
same,GI50,CCRF-CEM,> 100 µM (inactive)
same,GI50,COLO 205,> 100 µM (inactive)
same,GI50,DU-145,> 100 µM (inactive)
same,GI50,EKVX,> 100 µM (inactive)
same,GI50,HCC 2998,> 100 µM (inactive)
same,GI50,HCT-116,> 100 µM (inactive)
same,GI50,HCT-15,> 100 µM
same,GI50,HL-60,> 100 µM (inactive)
same,GI50,HOP-62,> 100 µM (inactive)
same,GI50,HOP-92,> 100 µM (inactive)
same,GI50,HT-29,> 100 µM (inactive)
same,GI50,Hs-578T,> 100 µM (inactive)
same,GI50,IGROV-1,> 100 µM (inactive)
same,GI50,K562,> 100 µM (inactive)
same,GI50,KM12,> 100 µM (inactive)
same,GI50,LOX IMVI,> 100 µM (inactive)
same,GI50,M14,> 100 µM (inactive)
same,GI50,MCF7,> 100 µM (inactive)
same,GI50,MDA-MB-231,> 100 µM (inactive)
same,GI50,MDA-MB-435,> 100 µM (inactive)
same,GI50,MDA-N,> 100 µM (inactive)
same,GI50,MOLT-4,> 100 µM (inactive)
same,GI50,NCI-H226,> 100 µM (inactive)
same,GI50,NCI-H23,> 100 µM (inactive)
same,GI50,NCI-H460,> 100 µM (inactive)
same,GI50,NCI-H522,> 100 µM (inactive)
same,GI50,NCI/ADR-RES,> 100 µM (inactive)
same,GI50,OVCAR-3,> 100 µM (inactive)
same,GI50,OVCAR-4,> 100 µM (inactive)
same,GI50,OVCAR-5,> 100 µM (inactive)
same,GI50,OVCAR-8,> 100 µM (inactive)
same,GI50,PC-3,> 100 µM (inactive)
same,GI50,RPMI-8226,> 100 µM (inactive)
same,GI50,RXF 393,> 100 µM (inactive)
same,GI50,SF-268,> 100 µM (inactive)
same,GI50,SF-295,> 100 µM (inactive)
same,GI50,SF-539,> 100 µM (inactive)
same,GI50,SK-MEL-28,> 100 µM (inactive)
same,GI50,SK-MEL-2,66.5 µM (inactive)
same,GI50,SK-MEL-5,> 100 µM (inactive)
same,GI50,SK-OV-3,> 100 µM (inactive)
same,GI50,SN12C,> 100 µM (inactive)
same,GI50,SNB-19,> 100 µM (inactive)
same,GI50,SNB-75,> 100 µM (inactive)
same,GI50,SR,> 100 µM (inactive)
same,GI50,SW-620,> 100 µM (inactive)
same,GI50,T47D,> 100 µM (inactive)
same,GI50,TK-10,> 100 µM (inactive)
same,GI50,U-251,> 100 µM (inactive)
same,GI50,UACC-257,> 100 µM (inactive)
same,GI50,UACC-62,> 100 µM (inactive)
same,GI50,UO-31,> 100 µM (inactive)
